From patent publication US20250381118A1, “SKIN TREATMENT METHODS” (Amazentis SA, priority 2017, published 2025)

Experiments:
[1] = tested on: MelanoDerm™ tissues (MEL-300-B); assay: MelanoDerm quantification of melanin content; type: cell-based, human; conditions: 14 days; for Melanin content versus Kojic acid at 2%: 100 μM, Student t test
Protocol: (§1) The MelanoDerm™ cultures from MatTek Corporation (Ashland, Massachusetts, USA) are a pigmented 3D-Living Skin Equivalent model. MEL-300 tissues are obtained by seeding keratinocytes with melanocytes. MEL-300-B cultures contain melanocytes derived from a donor tissue and are used for the evaluation of skin lightening potential. MEL-300-B were prepared in a long life maintenance medium (EPI-100-LLMM available from the MatTek Corporation) and cultured for a total of 14 days. A total of four tissue replicates (n=4) was used per group.
(§2) Untreated tissue was used as negative control. Maintenance medium was refreshed every 2 days.
(§3) Urolithin A was applied to the samples by addition to the maintenance medium at a final concentration of 50 and 100 µM, prepared from a stock solution at 50 mM in DMSO. A vehicle control was prepared using DMSO at 0.2% in maintenance medium. Maintenance medium added in Urolithin A or DMSO was refreshed every 2 days. Kojic acid was used as a positive control at 2% in 50:50 butylene glycol: water and applied topically (i.e. on the stratum corneum, the outermost layer of the epidermis, of the MelanoDerm™ sample). Kojic acid is a well-known inhibitor of tyrosinase, a key enzyme that is responsible for melanogenesis in melanoma and melanocytes, and is used to treat hyperpigmentation, melasma, and wrinkle in cosmetics products. Every 2 days, tissues were rinsed with sterile PBS to remove Kojic acid prior to adding a fresh preparation of kojic acid at 2% in 50:50 butylene glycol: water. Maintenance medium was changed at the same time. • a. At day 14, all tissues were photographed by top view for macroscopic analysis of pigmentation using a Nikon Eclipse Ti microscope. […] It is also visible that tissues treated with Urolithin A at 50 and 100 μM are as light as the tissues treated with the positive control Kojic acid applied topically at 2%. • b. The lightness of the samples was assessed by measuring the L value using the Konica Minolta Color Spectrophotometer (CM-700d) at day 0, 4, 7, 11 and 14. The L value tells how light or dark the color is, with black corresponding to L=0 and white to L=100. FIG. 3 represents the L values measured in the difference samples. […] At the end of the treatment, the L-values of tissues treated with Urolithin A and Kojic acid are equivalent, confirming what is visible in FIG. 2. […] Three tissues per group were used for the quantification of melanin. Tissues were first incubated in PBS to remove any phenol red remaining from the maintenance medium. Tissues were placed in a 1.7 ml microfuge tube with 500 μl of Solvable™ (Tissue and Gel Solubilizer 0.5 M-Packard BioScience Co. Catalogue No. 6NE9100) and incubated at 95° C. overnight along with melanin standards. Melanin standards were prepared by dissolving melanin (Sigma catalog number M8631) in Solvable™ at 1 mg/ml to make stock solution.
Following overnight incubation, samples were centrifuged at 13000 rpm for 5 minutes to pellet any insoluble material. 200 μl of each sample were transferred to a 96-well plate and read at 490 nm. FIG. 4 represents the results for the melanin content expressed in μg. Statistical significance was performed using a one-way ANOVA, followed by a Dunnett post-hoc test for multiple comparison of each group against the negative control.

[2] = tested on: EpiDerm™ tissues (EPI-200, normal human-derived epidermal keratinocytes); assay: EpiDerm skin cell viability (MTT) assay; type: cell-based; conditions: 96 hours; for Relative cell viability (% of negative control): basolateral, 90% = irritant threshold
Protocol: Pre-screen treatment conditions: A good skin lightener should inhibit melanin synthesis but not cause cytotoxicity to the tissue. The impact of Urolithin A on skin cells viability was performed with the EpiDerm tissue (EPI-200). The reconstructed human epidermal model EpiDerm™ (EPI-200, MatTek, Ashland, USA) consists of normal human-derived epidermal keratinocytes, which have been cultured to form a multilayered highly differentiated model of the human epidermis.
Tissues were grown in maintenance medium (EPI-100-LLMM available from the MatTek Corporation). Treatment was done basolaterally, i.e. with the test compounds dissolved in the maintenance medium, for a total duration of 96 hours. Two EpiDerm™ tissues (n=2) were used per condition, which were 1) water, 2) DMSO 0.5%, 3) Urolithin A 25 μM, 4) Urolithin A 50 μM and 5) Urolithin A 100 μM. Maintenance medium added or not in Urolithin A or DMSO was refreshed at 48 hours.
Cell viability is measured by dehydrogenase conversion of MTT [(3-4,5-dimethylthiazole-2-yl) 2,5-diphenyltetrazoliumbromide], present in cell mitochondria, into a blue formazan salt that is quantitatively measured after extraction from tissues. The MTT assay was performed by transferring the tissues to 24-well plates containing MTT medium (1 mg/ml). After a 3 hr MTT incubation, the blue formazan salt formed by cellular mitochondria was extracted with 2.0 ml/tissue of isopropanol (extractant solution, part #MTT-100-EXT) and the optical density of the extracted formazan was determined using a spectrophotometer at 570 nm. Relative cell viability was calculated for each tissue as % of the mean of the negative control tissues.

[3] = tested on: MelanoDerm™ tissues (MEL-300-B); assay: MelanoDerm macroscopic analysis of pigmentation (top view); type: cell-based, human; conditions: day 14
Protocol: as §1, §2
as §3, with “Melanin standards were prepared by dissolving melanin (Sigma catalog number M8631) in Solvable™ at 1 mg/ml to make stock solution.” left out

[4] = tested on: MelanoDerm™ tissues (MEL-300-B); assay: MelanoDerm lightness, L value by color spectrophotometer; type: cell-based, human; conditions: for L value versus negative control group: from day 4 until day 14
Protocol: as §1, §2, §3

[5] = Particle size distribution after micronisation (Malvern Mastersizer 2000); type: physicochemical; conditions: micronized, spiral jet mill
From the text: Urolithin A was micronized using an MC50 Spiral 20 Jetmill (Valortecs SAS, Blodelsheim, France), using filtered nitrogen, with a feed rate of 240 g/hr, a Venturi pressure of 12 bar, and a mill pressure of 12 bar. Urolithin A was micronized to give urolithin A having a particle size distribution of D90=9 μm to 15 μm and D50=2 to 9 μm. The actual particle size distribution was D90=11.5 μm, D50=3.9 μm, D10=0.7 μm, measured using a Malvern Mastersizer 2000.

[6] = Solubility (water; topical cream); type: physicochemical; conditions: topical cream including lipophilic excipients, e.g. an oil and/or a medium chain triglyceride
[7] = tested on: rodents; conditions: cited from earlier work

SMILES: O=c1cc(CO)occ1O [Kojic acid, reference compound]
- Decrease of melanin content compared to the negative control ([1]; 2% in 50:50 butylene glycol:water, applied topically): 62%

SMILES: O=c1oc2cc(O)ccc2c2ccc(O)cc12 [Urolithin A]
- Relative cell viability (% of negative control) ([2]; Urolithin A 25 μM): higher than 90%
- Relative cell viability (% of negative control) ([2]; Urolithin A 50 μM): higher than 90%
- Relative cell viability (% of negative control) ([2]; Urolithin A 100 μM): higher than 90%
- Effect on skin cell viability / cytotoxicity ([2]; at the tested concentrations (25, 50, 100 μM)): does not impair skin cell viability
- Macroscopic pigmentation versus negative control and DMSO 0.2% group ([3]; 50 μM in maintenance medium): consistently lighter
- Macroscopic pigmentation versus positive control Kojic acid 2% topical ([3]; 50 μM in maintenance medium): as light as
- Macroscopic pigmentation versus negative control and DMSO 0.2% group ([3]; 100 μM in maintenance medium): consistently lighter
- Macroscopic pigmentation versus positive control Kojic acid 2% topical ([3]; 100 μM in maintenance medium): as light as
- Speed of tissue-lightening effect versus Kojic acid ([4]; 50 μM): faster tissue-lightening effects
- L value versus negative control group ([4]; 50 μM): significantly higher
- Speed of tissue-/skin-lightening effect versus Kojic acid ([4]; 100 μM): faster tissue-lightening effects
- L value versus negative control group ([4]; 100 μM): significantly higher
- Speed of tissue-/skin-lightening effect versus Kojic acid ([4]; 100 μM, listed as urolithin A): faster skin-lightening effects
- L value versus tissues treated with Kojic acid ([4]; Urolithin A 50 or 100 μM, day 4 and 7): higher L value
- L value versus tissues treated with Kojic acid ([4]; end of the treatment (day 14)): equivalent
- Decrease of melanin content compared to the negative control ([1]; 50 μM in maintenance medium): 65%
- Decrease of melanin content compared to the negative control ([1]; 100 μM in maintenance medium): 67%
- Melanin content versus Kojic acid at 2% [1]: significantly lower
- Melanin content versus Kojic acid at 2% ([1]; listed as urolithin A): greater decrease in melanin content
- Particle size D10 [5]: 0.7 μm
- Particle size D50 [5]: 3.9 μm
- Particle size D90 [5]: 11.5 μm
- Solubility in topical cream composition [6]: especially soluble
- Mitophagy ([7]; in vivo): induces mitophagy
- Lifespan ([7]; rodents): increases lifespan
